Reference: ChEMBL document CHEMBL5325395, “Design, synthesis and anti-ovarian cancer activities of thieno[2,3-d]pyrimidine based chimeric BRD4 inhibitor/nitric oxide-donator” (Eur J Med Chem, 2023)
pIC50, pKd: −log10 of the molar value. Activity calls are given as the source filed them. The calls are words filed in the database; no cut-off is given here.

Experiments:
[1] = biological target: T1, Bromodomain-containing protein 3 (Homo sapiens, UniProt Q15059); test: Inhibition of BRD3 bromodomain 1 (unknown origin) by Alphascreen based method
T1 sequence (Q15059 whole entry): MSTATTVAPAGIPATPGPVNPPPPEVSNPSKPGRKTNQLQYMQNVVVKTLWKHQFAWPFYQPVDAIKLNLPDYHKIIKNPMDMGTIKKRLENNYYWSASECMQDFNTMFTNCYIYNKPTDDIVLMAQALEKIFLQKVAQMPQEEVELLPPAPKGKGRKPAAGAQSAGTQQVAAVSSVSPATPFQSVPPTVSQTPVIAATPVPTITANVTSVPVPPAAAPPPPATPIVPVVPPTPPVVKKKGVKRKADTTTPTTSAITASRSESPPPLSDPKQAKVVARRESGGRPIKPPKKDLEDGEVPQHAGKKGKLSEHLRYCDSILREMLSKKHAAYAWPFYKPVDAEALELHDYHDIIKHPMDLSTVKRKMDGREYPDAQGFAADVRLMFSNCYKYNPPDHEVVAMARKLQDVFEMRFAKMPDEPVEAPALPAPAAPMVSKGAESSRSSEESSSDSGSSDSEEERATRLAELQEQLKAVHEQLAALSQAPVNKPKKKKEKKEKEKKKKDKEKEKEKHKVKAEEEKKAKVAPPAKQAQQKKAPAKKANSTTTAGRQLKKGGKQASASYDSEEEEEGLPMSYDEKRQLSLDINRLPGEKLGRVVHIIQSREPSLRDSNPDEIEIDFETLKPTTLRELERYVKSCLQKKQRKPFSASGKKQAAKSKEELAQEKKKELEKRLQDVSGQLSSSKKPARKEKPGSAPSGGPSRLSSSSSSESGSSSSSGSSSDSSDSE

[2] = biological target: T2, Bromodomain-containing protein 2 (Homo sapiens, UniProt P25440); test: Binding affinity to BRD2 BD2 (unknown origin) by thermal denaturation assay
T2 sequence (P25440 whole entry): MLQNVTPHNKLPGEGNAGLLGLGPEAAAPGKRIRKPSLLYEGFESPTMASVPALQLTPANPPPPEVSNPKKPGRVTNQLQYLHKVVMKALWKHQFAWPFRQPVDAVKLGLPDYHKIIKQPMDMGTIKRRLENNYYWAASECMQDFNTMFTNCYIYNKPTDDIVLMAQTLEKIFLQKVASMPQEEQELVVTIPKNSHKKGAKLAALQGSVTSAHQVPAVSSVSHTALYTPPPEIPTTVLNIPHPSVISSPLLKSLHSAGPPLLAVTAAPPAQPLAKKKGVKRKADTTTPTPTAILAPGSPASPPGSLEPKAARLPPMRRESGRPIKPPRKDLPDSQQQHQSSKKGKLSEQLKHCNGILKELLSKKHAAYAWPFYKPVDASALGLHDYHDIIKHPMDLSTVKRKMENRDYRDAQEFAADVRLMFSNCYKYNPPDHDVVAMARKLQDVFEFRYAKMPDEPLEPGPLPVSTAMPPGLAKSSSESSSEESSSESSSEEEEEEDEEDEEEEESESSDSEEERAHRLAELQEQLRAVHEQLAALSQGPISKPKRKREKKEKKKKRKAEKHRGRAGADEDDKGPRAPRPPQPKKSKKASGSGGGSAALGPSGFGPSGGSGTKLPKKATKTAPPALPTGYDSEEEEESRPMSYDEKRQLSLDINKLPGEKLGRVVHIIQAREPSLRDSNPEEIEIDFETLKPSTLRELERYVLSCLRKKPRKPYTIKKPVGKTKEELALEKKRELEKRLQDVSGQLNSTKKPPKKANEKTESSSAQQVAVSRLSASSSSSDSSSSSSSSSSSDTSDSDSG

[3] = Induction of NO release in phosphate buffer at 3 hrs by Griess reagent based spectrophotometer analysis; type: functional
[4] = biological target: T3, Bromodomain-containing protein 4 (Homo sapiens, UniProt O60885); test: Inhibition of BRD4 (unknown origin)
SK-OV-3 [5] = test: Induction of autophagy in human SK-OV-3 cells assessed as reduction in LAMP1 labeled lysosomes at 2 umol/L incubated for 24 hrs by immunofluorescence analysis; type: functional, cell-based; conditions: dose 2.0 µmol/L
[6] = Induction of NO release in phosphate buffer at 1 hr by Griess reagent based spectrophotometer analysis; type: functional
[7] = biological target: T3, Bromodomain-containing protein 4; test: Inhibition of BRD4 bromodomain 2 (unknown origin) by Alphascreen based method
SK-OV-3 [8] = test: Induction of apoptosis in human SK-OV-3 cells assessed as upregulation of Beclin1 protein expression at 1 to 2 uM incubated for 24 hrs by Western blotting analysis; type: functional, cell-based; conditions: dose 1-2 µM
SK-OV-3 [9] = test: Induction of autophagy in human SK-OV-3 cells assessed as reduction in GFP-LC3 labeled lysosomes at 2 umol/L incubated for 24 hrs by immunofluorescence analysis; type: functional, cell-based; conditions: dose 2.0 µmol/L
[10] = biological target: T3, Bromodomain-containing protein 4; test: Inhibition of BRD4 in human SK-OV-3 cells assessed as reduction in BRD4 protein expression by Western blot analysis; type: cell-based
[11] = biological target: T3, Bromodomain-containing protein 4; test: Inhibition of BRD4 in human SK-OV-3 cells assessed as reduction in c-Myc protein expression by Western blot analysis; type: cell-based
A2780 = test: Antiproliferative activity against human A2780 cells assessed as reduction in cell viability incubated for 24 hrs by CCK8 assay; type: functional, cell-based; conditions: A2780, 24 h
[12] = Induction of NO release in phosphate buffer at 6 hrs by Griess reagent based spectrophotometer analysis; type: functional
SK-OV-3 [13] = test: Induction of apoptosis in human SK-OV-3 cells assessed as necrotic cells at 2 uM incubated for 24 hrs by Annexin V and PI staining based flow cytometry analysis (reference value: 0.15 %); type: functional
[14] = biological target: T2, Bromodomain-containing protein 2; test: Inhibition of BRD2 bromodomain 1 (unknown origin) by Alphascreen based method
SK-OV-3 [15] = test: Antitumor activity against human SK-OV-3 cells xenografted in BALB/c nude mouse assessed as reduction in Ki-67 expression at 30 mg/kg, ip administered for 19 days by immunohistochemical analysis; type: functional, organism-based; conditions: time 19.0 day
SK-OV-3 [16] = test: Induction of apoptosis in human SK-OV-3 cells assessed as viable cells at 2 uM incubated for 24 hrs by Annexin V and PI staining based flow cytometry analysis (reference value: 99.8 %); type: functional; conditions: read-out: Activity
SK-OV-3 [17] = test: Induction of autophagy in human SK-OV-3 cells assessed as increase in autophagosomes at 2 umol/L incubated for 24 hrs by immunofluorescence analysis; type: functional, cell-based; conditions: dose 2.0 µmol/L
SK-OV-3 [18] = test: Induction of autophagy in human SK-OV-3 cells assessed as GFP-LC3 aggregation incubated for 24 hrs by transmission electron microscopy analysis; type: functional, cell-based
[19] = Induction of NO release in phosphate buffer at 24 hrs by Griess reagent based spectrophotometer analysis; type: functional
SK-OV-3 [20] = test: Antitumor activity against human SK-OV-3 cells xenografted in BALB/c nude mouse assessed as increase in tumor cell apoptosis at 30 mg/kg, ip administered for 19 days by TUNEL staining based analysis; type: functional, organism-based; conditions: time 19.0 day
OVCAR-3 = test: Antiproliferative activity against human OVCAR-3 cells assessed as reduction in cell viability incubated for 24 hrs by CCK8 assay; type: functional, cell-based; conditions: OVCAR-3, 24 h
ES-2 = test: Antiproliferative activity against human ES2 cells assessed as reduction in cell viability incubated for 24 hrs by CCK8 assay; type: functional, cell-based; conditions: ES-2, 24 h
SK-OV-3 [21] = test: Antiproliferative activity against human SK-OV-3 cells assessed as reduction in cell viability incubated for 24 hrs by CCK8 assay; type: functional, cell-based; conditions: SK-OV-3, 24 h
SW626 = test: Antiproliferative activity against human SW626 cells assessed as reduction in cell viability incubated for 24 hrs by CCK8 assay; type: functional, cell-based; conditions: SW626, 24 h
[22] = Induction of NO release in phosphate buffer at 0.5 hrs by Griess reagent based spectrophotometer analysis; type: functional
SK-OV-3 [23] = test: Induction of apoptosis in human SK-OV-3 cells assessed as necrotic cells at 1 uM incubated for 24 hrs by Annexin V and PI staining based flow cytometry analysis (reference value: 0.15 %); type: functional
SK-OV-3 [24] = test: Induction of apoptosis in human SK-OV-3 cells assessed as early apoptotic cells at 1 uM incubated for 24 hrs by Annexin V and PI staining based flow cytometry analysis (reference value: 0.020 %); type: functional
SK-OV-3 [25] = test: Induction of apoptosis in human SK-OV-3 cells assessed as upregulation of LC3II/I protein expression at 1 to 2 uM incubated for 24 hrs by Western blotting analysis; type: functional, cell-based; conditions: dose 1-2 µM
SK-OV-3 [26] = test: Induction of autophagy in human SK-OV-3 cells assessed as GFP-LC3 aggregation incubated for 24 hrs by confocal fluorescence microscopy analysis; type: functional, cell-based
[27] = Induction of NO release in phosphate buffer at 4 hrs by Griess reagent based spectrophotometer analysis; type: functional
[28] = Induction of NO release in phosphate buffer at 2 hrs by Griess reagent based spectrophotometer analysis; type: functional
SK-OV-3 [29] = test: Induction of apoptosis in human SK-OV-3 cells assessed as upregulation of p62/SQSTM1 protein expression at 1 to 2 uM incubated for 24 hrs by Western blotting analysis; type: functional, cell-based; conditions: dose 1-2 µM
[30] = biological target: T3, Bromodomain-containing protein 4; test: Binding affinity to BRD4 BD2 (unknown origin) by thermal denaturation assay
SK-OV-3 [31] = test: Antitumor activity against human SK-OV-3 cells xenografted in Balb/c nude mouse assessed as tumor growth inhibition at 30 mg/kg, ip administered for 19 days; type: functional, organism-based; conditions: time 19.0 day
[32] = biological target: T2, Bromodomain-containing protein 2; test: Binding affinity to BRD2 BD1 (unknown origin) by thermal denaturation assay
SK-OV-3 [33] = test: Induction of apoptosis in human SK-OV-3 cells assessed as early apoptotic cells at 2 uM incubated for 24 hrs by Annexin V and PI staining based flow cytometry analysis (reference value: 0.020 %); type: functional
SK-OV-3 [34] = test: Induction of autophagy in human SK-OV-3 cells assessed as appearance of autophagic vacuoles incubated for 24 hrs by confocal fluorescence microscopy analysis; type: functional, cell-based
SK-OV-3 [35] = test: Induction of apoptosis in human SK-OV-3 cells assessed as upregulation of cytochrome-C protein expression at 1 to 2 uM incubated for 24 hrs by Western blotting analysis; type: functional, cell-based; conditions: dose 1-2 µM
Mus musculus = test: In vivo inhibition of BRD4 in BALB/c nude mouse xenografted with human SK-OV-3 cells assessed as reduction in c-Myc expression at 30 mg/kg, ip administered for 19 days by immunohistochemical analysis; type: functional, organism-based; conditions: time 19.0 day
SK-OV-3 [36] = test: Induction of apoptosis in human SK-OV-3 cells assessed as downregulation of Bcl-2 protein expression at 1 to 2 uM incubated for 24 hrs by Western blotting analysis; type: functional, cell-based; conditions: dose 1-2 µM
[37] = biological target: T3, Bromodomain-containing protein 4; test: Inhibition of BRD4 bromodomain 1 (unknown origin) by Alphascreen based method
SK-OV-3 [38] = test: Induction of apoptosis in human SK-OV-3 cells assessed as late apoptotic cells at 2 uM incubated for 24 hrs by Annexin V and PI staining based flow cytometry analysis (reference value: 0 %); type: functional
SK-OV-3 [39] = test: Induction of apoptosis in human SK-OV-3 cells assessed as viable cells at 1 uM incubated for 24 hrs by Annexin V and PI staining based flow cytometry analysis (reference value: 99.8 %); type: functional; conditions: read-out: Activity
SK-OV-3 [40] = test: Induction of autophagy in human SK-OV-3 cells assessed as appearance of autophagic vacuoles incubated for 24 hrs by transmission electron microscopy analysis; type: functional, cell-based
[41] = biological target: Bromodomain testis-specific protein (Homo sapiens, UniProt Q58F21); test: Inhibition of BRDT bromodomain 1 (unknown origin) by Alphascreen based method
[42] = biological target: T1, Bromodomain-containing protein 3; test: Inhibition of BRD3 bromodomain 2 (unknown origin) by Alphascreen based method
SK-OV-3 [43] = test: Induction of apoptosis in human SK-OV-3 cells assessed as upregulation of cleaved caspase 3 protein expression at 1 to 2 uM incubated for 24 hrs by Western blotting analysis; type: functional, cell-based; conditions: dose 1-2 µM
SK-OV-3 [44] = test: Induction of apoptosis in human SK-OV-3 cells assessed as late apoptotic cells at 1 uM incubated for 24 hrs by Annexin V and PI staining based flow cytometry analysis (reference value: 0 %); type: functional
[45] = biological target: T3, Bromodomain-containing protein 4; test: Binding affinity to BRD4 BD1 (unknown origin) by thermal denaturation assay
[46] = Toxicity in BALB/c mouse xenografted with human SK-OV-3 cells assessed as change in body weight at 30 mg/kg, ip administered for 19 days; type: organism-based; conditions: in vivo, 456 h, time 19 day
[47] = biological target: T2, Bromodomain-containing protein 2; test: Inhibition of BRD2 bromodomain 2 (unknown origin) by Alphascreen based method

- pIC50 [1]: < 4.70
- pKd [2]: 4.76
- pIC50 [4]: 6.09
- pIC50 [7]: 5.71
- inhibition [10]: Active
- inhibition [11]: Active
- pIC50 (A2780): 5.46
- pIC50 [14]: 4.80
- pIC50 (OVCAR-3): 5.57
- pIC50 (SK-OV-3 [21]): 5.86
- pIC50 (SW626): 5.07
- pKd [30]: 6.16
- pKd [32]: 5.13
- pIC50 [37]: 6.09
- pIC50 [41]: < 4.70
- pIC50 [42]: < 4.70
- pKd [45]: 6.38
- pIC50 [47]: < 4.70
Structure (SMILES): Cc1cc(-c2nc3sc4c(c3c(=O)[nH]2)CCN(C)C4)cc(C)c1OCC(=O)OCc1c(-c2ccccc2)no[n+]1[O-]
- Activity [3]: 0.072 µmol/L
- Activity (SK-OV-3 [5]): Active
- Activity [6]: 0.055 µmol/L
- Activity (SK-OV-3 [8]): Active
- Activity (SK-OV-3 [9]): Active
- Activity [12]: 0.111 µmol/L
- Activity (SK-OV-3 [13]): 1.03%
- Activity (SK-OV-3 [15]): Active
- viability at 2 µM (SK-OV-3 [16]): 85.1%
- Activity (SK-OV-3 [17]): Active
- Activity (SK-OV-3 [18]): Active
- Activity [19]: 0.258 µmol/L
- Activity (SK-OV-3 [20]): Active
- pIC50 (ES-2): 5.46
- Activity [22]: 0.061 µmol/L
- Activity (SK-OV-3 [23]): 1.2%
- Activity (SK-OV-3 [24]): 6.15%
- Activity (SK-OV-3 [25]): Active
- Activity (SK-OV-3 [26]): Active
- Activity [27]: 0.095 µmol/L
- Activity [28]: 0.054 µmol/L
- Activity (SK-OV-3 [29]): Active
- Activity (SK-OV-3 [31]): Active
- Activity (SK-OV-3 [33]): 8.84%
- Activity (SK-OV-3 [34]): Active
- Activity (SK-OV-3 [35]): Active
- inhibition (Mus musculus): Active
- Activity (SK-OV-3 [36]): Active
- Activity (SK-OV-3 [38]): 5.21%
- viability at 1 µM (SK-OV-3 [39]): 88.9%
- Activity (SK-OV-3 [40]): Active
- Activity (SK-OV-3 [43]): Active
- Activity (SK-OV-3 [44]): 4.5%
- Activity [46]: Non-Toxic
